Measurements taken from patent US7456146B2, “Lytic peptide prodrugs” (GHC Research Development Corporation, priority 2001, dated 2008).
Starred links: 1 amine or outer side, 2 acyl side, 3 side chain; linkers in the order of their positions; H or OH if unused. Groups on a side chain read outwards from the residue. No end group written: not given here. γGlu = O=C(O)[C@H](CCC(=O)[*:2])N[*:1]

Experiments:
mice = assay: toxicity of escalating doses in mice; format: in vivo; details: 50, 100, 150 and 200 mM
Method: To assess the toxicity of this analog, mice were treated with escalating doses of analog, either subcutaneously or intravenously.

SK-OV-3 = assay: lytic activity on cultured tumor cells, ovarian tumor SK-OV-3 (FIG. 4); format: cell-based; details: 1, 10, 50 or 100 μM peptide
Method: (§1) This experiment, utilized a melittin analog having A [ε-γ]-Glu-[α-γ]-Glu at each of lysines 21 and 23: NH2-[…][ε-γ]-Glu-[α-γ]-Glu)-Arg-Lys([ε-γ]-Glu-[α-γ]-Glu)-Arg-Gln-Gln-COOH. (SEQ ID NO: 19) Two prostate tumors (PNCap and DU0145), two ovarian tumors (HeLa and SK-OV-3), one lung tumor (LLC 1) and one melanoma (B 16) were tested. Cultured cells were treated with 1, 10, 50 or 100 μM peptide.

PNCap = assay: lytic activity on cultured tumor cells, prostate tumor PNCap (FIG. 4); format: cell-based; details: 1, 10, 50 or 100 μM peptide
Method: as §1

HeLa = assay: lytic activity on cultured tumor cells, HeLa (FIG. 4, FIG. 5); format: cell-based
Method: as §1
(§2) The same analog was used to treat a PSMA-expressing prostate cells (LNCaP-FCG), ovarian cancer cells (HeLa) or prostate cells not expressing PSMA (PC3).

DU0145 = assay: lytic activity on cultured tumor cells, prostate tumor DU0145 (FIG. 4); format: cell-based; details: 1, 10, 50 or 100 μM peptide
Method: as §1

LLC 1 = assay: lytic activity on cultured tumor cells, lung tumor LLC 1 (FIG. 4); format: cell-based; details: 1, 10, 50 or 100 μM peptide
Method: as §1

B 16 = assay: lytic activity on cultured tumor cells, melanoma B 16 (FIG. 4); format: cell-based; details: 1, 10, 50 or 100 μM peptide
Method: as §1

[1] = test system: prostate cells not expressing PSMA (PC3); assay: toxicity to prostate cells not expressing PSMA (FIG. 5); format: cell-based; details: 25 and 50 mM concentrations
Description: as §2

[2] = test system: PSMA-expressing prostate cells (LNCaP-FCG); assay: toxicity to PSMA-expressing prostate cells (FIG. 5); format: cell-based; details: 25 and 50 mM concentrations
Description: as §2

nucleated cells = details: cited from earlier work
[3] = test system: human prostate cancer cells (LNCaP); assay: cell lysis assay, LNCaP prostate tumor cells (FIG. 1); format: cell-based; details: 50 μM; after 15 minutes
Method: For cell lysis assay, 10^6 LNCaP prostate tumor cells were cultured in 48-well plate in 200 μl culture medium containing different concentrations of the peptide. The culture medium for LNCaP cell was RPMI 1640 medium with 2 mM L-glutamine adjusted to contain 1.5 g/L sodium bicarbonate, 4.5 g/L glucose, 10 mM HEPES, 1.0 mM sodium pyruvate, 90%; fetal bovine serum 10%. […]

mouse L-cells [4] = assay: cell lysis assay, mouse L-cells (FIG. 1); format: cell-based; details: 50 μM; after 24 hours
[5] = test system: human prostate cancer cells (LNCaP); assay: ATP depletion assay (ATP bioluminescence), LNCaP (FIG. 3); format: cell-based; details: 50 or 100 μM; after 1 hour
Description: (§3) In order to obtain a more quantitative result, the assay was repeated and decrease in ATP levels was used as a surrogate marker for live versus dead cells. ATP plays a central role in the energy status of the cell and the regulation of enzymatic activity. The intracellular ATP level is strictly regulated. The assay of ATP has been used as a rapid and convenient measure of viable cell numbers. ATP level can be enzymatically determined with firefly luciferase, which specifically catalyzes the hydrolysis of ATP. The amount of light generated by this enzymatic reaction is directly related to the amount of ATP in the original sample.
(§4) For this purpose, the ATP Bioluminescence Assay Kit CLS II from Boehringer-Mannheim (Cat. No. 1699695) was employed. Briefly, 10^6 cells in 200 μl of medium containing the peptide, as above, were incubated at 37° C. in a CO2 incubator for 60 min. The cells were then lysed with 10 μl of 10% Triton X-100. Each lysate was transferred into a tube containing 155 μl of distilled water and 25 μl of stock luciferase and chemiluminescence was measured in a luminometer as directed by the manufacturer. As can been seen from FIG. 3, ATP is dramatically depleted in the presence of either 50 or 100 μM peptide, as compared to the controls.

mouse L-cells [6] = assay: ATP depletion assay (ATP bioluminescence), mouse L-cells (FIG. 3); format: cell-based; details: 50 or 100 μM; 1 hour
Description: as §3, §4

CC[C@H](C)[C@H](NC(=O)CN)C(=O)NCC(=O)N[C@@H](C)C(=O)N[C@H](C(=O)N[C@@H](CC(C)C)C(=O)N[C@@H](CCCCN)C(=O)N[C@H](C(=O)N[C@@H](CC(C)C)C(=O)N[C@H](C(=O)N[C@H](C(=O)NCC(=O)N[C@@H](CC(C)C)C(=O)N1CCC[C@H]1C(=O)N[C@@H](C)C(=O)N[C@@H](CC(C)C)C(=O)N[C@H](C(=O)N[C@@H](CO)C(=O)N[C@@H](Cc1c[nH]c2ccccc12)C(=O)N[C@H](C(=O)N[C@@H](CCCCNC(=O)CC[C@H](NC(=O)CC[C@H](N)C(=O)O)C(=O)O)C(=O)N[C@@H](CCCNC(=N)N)C(=O)N[C@@H](CCCCNC(=O)CC[C@H](NC(=O)CC[C@H](N)C(=O)O)C(=O)O)C(=O)N[C@@H](CCCNC(=N)N)C(=O)N[C@@H](CCC(N)=O)C(=O)N[C@@H](CCC(N)=O)C(=O)O)[C@@H](C)CC)[C@@H](C)CC)[C@@H](C)O)[C@@H](C)O)C(C)C)C(C)C [melittin analog]
tolerated concentration relative to concentration needed to kill a mouse using the unmasked melittin peptide (mice): 50-200 fold
condition of mice after treatment (mice; subcutaneously or intravenously, weeks following treatment): remained healthy, apparently unaffected
lytic activity (SK-OV-3): strong lytic activity
lytic activity (PNCap): strong lytic activity
lytic activity (HeLa; 1, 10, 50 or 100 μM peptide): strong lytic activity
toxicity to cells (HeLa; 25 and 50 mM concentrations): highly toxic
lytic activity (DU0145): strong lytic activity
lytic activity (LLC 1): strong lytic activity
lytic activity (B 16): strong lytic activity
toxicity to cells [1]: relatively unaffected
toxicity to cells [2]: highly toxic

NH2-Gly-Phe-Ile-Ala-Thr-Leu-Cys-Thr-Lys-Val-Leu-Asp-Phe-Gly-Ile-Asp-Lys-Leu-Ile-Gln-Leu-Ile-Glu-Asp-Lys-CONH2 (H-GFIATLCTKVLDFGIDKLIQLIEDK-NH2; listed as Entamoeba histolytica) [Amoebapore Helix 3]
concentration with cytolytic activity (nucleated cells): 10 to 100 µM

amoebapore helix 3-γ-Glu-γ-Glu: 25-residue C-terminal amidated amoebapore helix 3 peptide with two γ-linked glutamates on the ε amino group of the C-terminal lysine (GFIATLCTKVLDFGIDKLIQLIEDK([γGlu-γGlu])-NH2; N-terminus assumed; SMILES CC[C@H](C)[C@H](NC(=O)CNC(=O)[C@H](Cc1ccccc1)NC(=O)[C@H](CC(=O)O)NC(=O)[C@H](CC(C)C)NC(=O)[C@@H](NC(=O)[C@H](CCCCN)NC(=O)[C@@H](NC(=O)[C@H](CS)NC(=O)[C@H](CC(C)C)NC(=O)[C@@H](NC(=O)[C@H](C)NC(=O)[C@@H](NC(=O)[C@H](Cc1ccccc1)NC(=O)CN)[C@@H](C)CC)[C@@H](C)O)[C@@H](C)O)C(C)C)C(=O)N[C@@H](CC(=O)O)C(=O)N[C@@H](CCCCN)C(=O)N[C@@H](CC(C)C)C(=O)N[C@H](C(=O)N[C@@H](CCC(N)=O)C(=O)N[C@@H](CC(C)C)C(=O)N[C@H](C(=O)N[C@@H](CCC(=O)O)C(=O)N[C@@H](CC(=O)O)C(=O)N[C@@H](CCCCNC(=O)CC[C@H](NC(=O)CC[C@H](N)C(=O)O)C(=O)O)C(N)=O)[C@@H](C)CC)[C@@H](C)CC)
cell lysis [3]: completely lysed
cell lysis (mouse L-cells [4]): remain unaffected
cell lysis by ATP depletion [5]: completely lysed
cell lysis by ATP depletion (mouse L-cells [6]): remain unaffected
